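1) Cells in 96-well plates. 2) Compound, 48 h, 5 concentrations. 3) Linear interpolation between surrounding doses. 4) Unreached endpoint = highest concentration. GI50: concentration for 50% inhibition of growth.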 Activity calls are given as the source filed them. Rule as the data show it: active = GI50 up to about 1.1 µM and inactive = higher.
What was measured:
Experiment in all cases: DTP human tumour cell line panel, 48 h
LOX IMVI = test system: LOX IMVI
PC-3 = test system: PC-3
MDA-N = test system: MDA-N
CAKI-1 = test system: CAKI-1
RXF 393 = test system: RXF 393
Malme-3M = test system: Malme-3M
SF-539 = test system: SF-539
OVCAR-5 = test system: OVCAR-5
SW-620 = test system: SW-620
SK-OV-3 = test system: SK-OV-3
SK-MEL-2 = test system: SK-MEL-2
SK-MEL-5 = test system: SK-MEL-5
OVCAR-4 = test system: OVCAR-4
IGROV-1 = test system: IGROV-1
HCC 2998 = test system: HCC 2998
HCT-15 = test system: HCT-15
SNB-19 = test system: SNB-19
HT-29 = test system: HT-29
NCI/ADR-RES = test system: NCI/ADR-RES
UACC-62 = test system: UACC-62
OVCAR-3 = test system: OVCAR-3
M14 = test system: M14
ACHN = test system: ACHN
NCI-H460 = test system: NCI-H460
UO-31 = test system: UO-31
K562 = test system: K562
NCI-H226 = test system: NCI-H226
MDA-MB-231 = test system: MDA-MB-231
MDA-MB-435 = test system: MDA-MB-435
OVCAR-8 = test system: OVCAR-8
COLO 205 = test system: COLO 205
DU-145 = test system: DU-145
A498 = test system: A498
SF-295 = test system: SF-295
MCF7 = test system: MCF7
A549 = test system: A549
HOP-62 = test system: HOP-62
786-0 = test system: 786-0
SN12C = test system: SN12C
NCI-H522 = test system: NCI-H522
HL-60 = test system: HL-60
NCI-H23 = test system: NCI-H23
KM12 = test system: KM12
TK-10 = test system: TK-10
UACC-257 = test system: UACC-257
CCRF-CEM = test system: CCRF-CEM
EKVX = test system: EKVX
RPMI-8226 = test system: RPMI-8226
U-251 = test system: U-251
HCT-116 = test system: HCT-116
SR = test system: SR
MOLT-4 = test system: MOLT-4
Hs-578T = test system: Hs-578T
HOP-92 = test system: HOP-92
SK-MEL-28 = test system: SK-MEL-28
SF-268 = test system: SF-268
SNB-75 = test system: SNB-75
T47D = test system: T47D

## O=c1[nH]n(Cc2ccccc2CCl)c2ccc([N+](=O)[O-])cc12
LOX IMVI
  GI50: 55.7 µM (inactive)
PC-3
  GI50: 31.3 µM (inactive)
MDA-N
  GI50: 62.1 µM (inactive)
CAKI-1
  GI50: 25 µM (inactive)
RXF 393
  GI50: 32.9 µM (inactive)
Malme-3M
  GI50: 83.4 µM (inactive)
SF-539
  GI50: 58.3 µM (inactive)
OVCAR-5
  GI50: > 100 µM (inactive)
SW-620
  GI50: 49 µM (inactive)
SK-OV-3
  GI50: 27.7 µM (inactive)
SK-MEL-2
  GI50: 43.4 µM (inactive)
SK-MEL-5
  GI50: 13.4 µM (inactive)
OVCAR-4
  GI50: 37.1 µM (inactive)
IGROV-1
  GI50: > 100 µM (inactive)
HCC 2998
  GI50: 21.7 µM (inactive)
HCT-15
  GI50: 60.8 µM
SNB-19
  GI50: 48.9 µM (inactive)
HT-29
  GI50: 34.8 µM (inactive)
NCI/ADR-RES
  GI50: 29.9 µM (inactive)
UACC-62
  GI50: 30.5 µM (inactive)
OVCAR-3
  GI50: 48.2 µM (inactive)
M14
  GI50: 39.2 µM (inactive)
ACHN
  GI50: 55.3 µM (inactive)
NCI-H460
  GI50: 23.8 µM (inactive)
UO-31
  GI50: 88.3 µM (inactive)
K562
  GI50: 42.4 µM (inactive)
NCI-H226
  GI50: 93.5 µM (inactive)
MDA-MB-231
  GI50: 38.4 µM (inactive)
MDA-MB-435
  GI50: 35.1 µM (inactive)
OVCAR-8
  GI50: 40.5 µM (inactive)
COLO 205
  GI50: 26.1 µM (inactive)
DU-145
  GI50: 59.7 µM (inactive)
A498
  GI50: 62.2 µM (inactive)
SF-295
  GI50: 37.8 µM (inactive)
MCF7
  GI50: 29.8 µM (inactive)
A549
  GI50: 31.2 µM (inactive)
HOP-62
  GI50: 47.6 µM (inactive)
786-0
  GI50: 55.5 µM (inactive)
SN12C
  GI50: 52.7 µM (inactive)
NCI-H522
  GI50: 22.9 µM (inactive)
HL-60
  GI50: 26.6 µM (inactive)
NCI-H23
  GI50: 83 µM (inactive)
KM12
  GI50: 49.5 µM (inactive)
TK-10
  GI50: 54.3 µM (inactive)
UACC-257
  GI50: 64.4 µM (inactive)
CCRF-CEM
  GI50: 28.7 µM (inactive)
EKVX
  GI50: 45.2 µM (inactive)
RPMI-8226
  GI50: 32 µM (inactive)
U-251
  GI50: 42.3 µM (inactive)
HCT-116
  GI50: 41.4 µM (inactive)
SR
  GI50: 33.6 µM (inactive)
MOLT-4
  GI50: 26.6 µM (inactive)
Hs-578T
  GI50: 85.5 µM (inactive)
HOP-92
  GI50: 34.5 µM (inactive)
SK-MEL-28
  GI50: 34.5 µM (inactive)
SF-268
  GI50: 35.3 µM (inactive)

## CC(C)=CC(=O)O[C@H]1C(=O)O[C@@H]2C[C@H]3[C@H](C)C(=O)C(O[C@@H]4O[C@H](CO)[C@@H](O)[C@H](O)[C@H]4O)=C[C@]3(C)[C@H]3[C@@H](O)[C@H](O)[C@]4(C(=O)O)OC[C@]32[C@@H]14 [BRUCEOSIDE D]
PC-3
  GI50: 71 µM (inactive)
MDA-N
  GI50: 66.2 µM (inactive)
CAKI-1
  GI50: 90.8 µM (inactive)
OVCAR-5
  GI50: 84.5 µM (inactive)
SW-620
  GI50: 79.4 µM (inactive)
IGROV-1
  GI50: 54 µM (inactive)
UACC-62
  GI50: 97.5 µM (inactive)
MDA-MB-435
  GI50: 66.5 µM (inactive)
COLO 205
  GI50: 65.8 µM (inactive)
A498
  GI50: 79.1 µM (inactive)
786-0
  GI50: 96.6 µM (inactive)
NCI-H23
  GI50: 56.1 µM (inactive)
TK-10
  GI50: 71.9 µM (inactive)
SNB-75
  GI50: 86.1 µM (inactive)
UACC-257
  GI50: 98.9 µM (inactive)
T47D
  GI50: 51.9 µM (inactive)

## N/N=C(\N)Nc1cccc2ccccc12
RXF 393
  GI50: > 100 µM (inactive)
Malme-3M
  GI50: > 100 µM (inactive)
SF-539
  GI50: > 100 µM (inactive)
OVCAR-5
  GI50: > 100 µM (inactive)
SW-620
  GI50: > 100 µM (inactive)
SK-OV-3
  GI50: > 100 µM (inactive)
SK-MEL-5
  GI50: > 100 µM (inactive)
OVCAR-4
  GI50: > 100 µM (inactive)
IGROV-1
  GI50: > 100 µM (inactive)
HCC 2998
  GI50: > 100 µM (inactive)
HCT-15
  GI50: > 100 µM
SNB-19
  GI50: > 100 µM (inactive)
HT-29
  GI50: > 100 µM (inactive)
NCI/ADR-RES
  GI50: > 100 µM (inactive)
UACC-62
  GI50: > 100 µM (inactive)
M14
  GI50: > 100 µM (inactive)
ACHN
  GI50: > 100 µM (inactive)
NCI-H460
  GI50: > 100 µM (inactive)
UO-31
  GI50: > 100 µM (inactive)
K562
  GI50: > 100 µM (inactive)
NCI-H226
  GI50: > 100 µM (inactive)
MDA-MB-231
  GI50: > 100 µM (inactive)
MDA-MB-435
  GI50: > 100 µM (inactive)
OVCAR-8
  GI50: > 100 µM (inactive)
COLO 205
  GI50: > 100 µM (inactive)
DU-145
  GI50: > 100 µM (inactive)
A498
  GI50: 33.3 µM (inactive)
SF-295
  GI50: > 100 µM (inactive)
MCF7
  GI50: > 100 µM (inactive)
A549
  GI50: > 100 µM (inactive)
HOP-62
  GI50: > 100 µM (inactive)
786-0
  GI50: > 100 µM (inactive)
SN12C
  GI50: > 100 µM (inactive)
HL-60
  GI50: > 100 µM (inactive)
NCI-H23
  GI50: > 100 µM (inactive)
KM12
  GI50: > 100 µM (inactive)
TK-10
  GI50: > 100 µM (inactive)
SNB-75
  GI50: > 100 µM (inactive)
UACC-257
  GI50: > 100 µM (inactive)
CCRF-CEM
  GI50: > 100 µM (inactive)
EKVX
  GI50: > 100 µM (inactive)
T47D
  GI50: > 100 µM (inactive)
RPMI-8226
  GI50: > 100 µM (inactive)
U-251
  GI50: > 100 µM (inactive)
HCT-116
  GI50: > 100 µM (inactive)
SR
  GI50: > 100 µM (inactive)
MOLT-4
  GI50: > 100 µM (inactive)
Hs-578T
  GI50: > 100 µM (inactive)
HOP-92
  GI50: 27.9 µM (inactive)
SK-MEL-28
  GI50: > 100 µM (inactive)
SF-268
  GI50: > 100 µM (inactive)

— ChEMBL document CHEMBL1201862, “PubChem BioAssay data set” (2004)
